Earlier results on 1 compound are cited in US20120107430A1, “PRE-PROCEDURE MEAL REGIMEN” (priority 2009, published 2012).

Molecules are shown by their SMILES.

Series [1] has as its system colon. The conditions noted are these: either diet (light breakfast then clear liquids, or normal breakfast, low residue lunch, then clear liquids); 200 patients.
For series [2], the system named is colon. To be noted: N=50 per arm; senna two doses 158 mg each, 8 hours apart; sodium phosphate 48 grams.

For the compound `O=P(O)(O)O` [sodium phosphate], in series [1], the “good to excellent preparation” value is given as 93-95%. In series [2], the “patients reporting good tolerance” value was 28 patients and the “patients reporting poor tolerance” value is 12 patients.
